The subject of assay [1] is MycspAAO. The following applies: 0.1-80 mM HMF, 10 µg/ml enzyme, 100 mM sodium phosphate pH 8, 30 °C.
In assay [2] the test system is MycspAAO. As to the kind of experiment: initial rates from HMF concentration over time, Lineweaver-Burk. Type of assay: biochemical, Mycobacterium sp. MS1601. The following applies: 0.1-80 mM HMF, 10 µg/ml enzyme, 100 mM sodium phosphate pH 8, 30 °C.

Where two headings read alike, the source gives them in different places.

Take `O=Cc1ccc(CO)o1` [5-hydroxymethylfurfural]: the Km (as a rule, the concentration of substrate that gives half-maximal velocity) in the assay on MycspAAO [1] amounted to 1900 ± 5 µM; with MycspAAO [2], 3300 ± 300 µM.

These data come from publication PMC9328741 (Microbial Biotechnology, 2022).
